Molecules are shown by their SMILES.

For test [1], the target named is T1, AChE (Electric-eel EC 3.1.1.7) (Electrophorus electricus, UniProt O42275).
T1 construct: purchased Sigma Aldrich
As to the kind of experiment: biochemical. In kind it is biochemical. As to conditions: for Type of inhibition (AChE): Lineweaver-Burk, Dixon plots and replots, 50, 75, 100 μM of compound 1.

The target of test [2] is T2, BChE (horse-serum E.C 3.1.1.8) (Equus caballus, UniProt P81908).
T2 construct: purchased Sigma Aldrich; host or cells: horse serum
As to the kind of experiment: Cholinesterase inhibition assay (Ellman spectrophotometric method), BChE. In kind it is biochemical. To be noted: for Type of inhibition (BChE): Lineweaver-Burk, Dixon plots and replots, 50, 75, 100 μM of compound 1.
Protocol: Enzyme (AChE/BChE) inhibition activities were measured by spectrophotometric method as described in literature (Ellman et al. [1961]). Reported protocol and assay conditions were followed throughout (Rocha et al. [1993]). AChI and AChCl substrates were used to assay AChE and BChE, respectively. DTNB was used as reagent for the measurement of cholinesterase activity. Solution containing DTNB (0.2 mM) in 62 mM sodium phosphate buffer (pH 8.0, 880 μL), test compound solution (40 μL) and AChE or BChE solution (40 μL) were mixed, incubated for 15 min (25 °C). AChE or BChE (40 μL), were added to initiate the respective solution. The hydrolysis of AChE and BChE were noted by naked eye due to formation of yellow colour 5-thio-2-nitrobenzoate anion at a wavelength of 412 nm (15 min). Reactions were performed in triplicate in a BMS spectrophotometer (USA) and the results presented are average values.

[3] abbreviates: listed as isotalatazidine hydrate.
Setting [4] is: listed as isotalatizidine hydrate.

T2 sequence (P81908 whole entry): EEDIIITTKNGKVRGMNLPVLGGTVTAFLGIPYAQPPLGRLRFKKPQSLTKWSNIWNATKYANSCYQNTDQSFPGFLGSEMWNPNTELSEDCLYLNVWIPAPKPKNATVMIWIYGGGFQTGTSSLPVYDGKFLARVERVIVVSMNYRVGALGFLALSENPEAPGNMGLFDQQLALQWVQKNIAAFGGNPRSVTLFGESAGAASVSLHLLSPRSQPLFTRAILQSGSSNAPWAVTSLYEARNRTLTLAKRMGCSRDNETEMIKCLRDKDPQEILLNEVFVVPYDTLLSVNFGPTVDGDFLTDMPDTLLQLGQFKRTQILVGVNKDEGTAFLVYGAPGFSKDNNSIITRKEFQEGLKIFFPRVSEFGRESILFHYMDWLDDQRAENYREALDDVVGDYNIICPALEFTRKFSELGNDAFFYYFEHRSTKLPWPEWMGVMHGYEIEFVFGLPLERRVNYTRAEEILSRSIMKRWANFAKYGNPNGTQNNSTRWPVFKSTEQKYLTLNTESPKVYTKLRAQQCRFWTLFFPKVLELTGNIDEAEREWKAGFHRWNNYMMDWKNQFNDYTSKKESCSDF
T1 sequence (O42275 24-633): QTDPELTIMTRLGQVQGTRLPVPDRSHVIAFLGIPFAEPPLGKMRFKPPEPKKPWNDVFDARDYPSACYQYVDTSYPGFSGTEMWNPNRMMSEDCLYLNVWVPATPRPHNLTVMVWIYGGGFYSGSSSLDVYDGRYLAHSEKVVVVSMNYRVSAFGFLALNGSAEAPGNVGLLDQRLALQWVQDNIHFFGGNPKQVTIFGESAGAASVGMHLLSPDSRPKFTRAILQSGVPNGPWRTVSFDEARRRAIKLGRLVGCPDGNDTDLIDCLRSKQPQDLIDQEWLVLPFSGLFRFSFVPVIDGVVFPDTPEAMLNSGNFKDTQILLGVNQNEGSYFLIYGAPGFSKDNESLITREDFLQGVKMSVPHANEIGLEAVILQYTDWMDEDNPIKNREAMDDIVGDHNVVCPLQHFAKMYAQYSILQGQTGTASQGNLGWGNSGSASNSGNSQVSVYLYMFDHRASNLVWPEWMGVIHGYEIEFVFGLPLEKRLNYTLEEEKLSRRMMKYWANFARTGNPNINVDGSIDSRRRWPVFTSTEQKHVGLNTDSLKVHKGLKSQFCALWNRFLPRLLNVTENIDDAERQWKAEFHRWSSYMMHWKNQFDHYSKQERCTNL

For the molecule `CCN1CC2(COC)CCC(O)C34C5CC6C(OC)CC(O)(C(CC23)C14)C5C6O` (centres unmarked) [Isotalatizidine hydrate, isotalatizidine hydrate], the “Type of inhibition (AChE)” value was “Competitive” in test [1], “competitive type inhibition” in test [1] (setting [3]) and “competitive inhibitor” in test [1] (setting [4]). Also, the IC50 amounted to 12.1 ± 0.43 µM in test [1] (standard error of mean of five assays, DTNB, pH 8.0, 25 °C, read-out: AChE ± SEM (IC50)) and 21.4 ± 0.23 µM in test [2] (standard error of mean of five assays, DTNB, pH 8.0, 25 °C, read-out: BChE ± SEM (IC50)). Moreover, the “Type of inhibition (BChE)” value in test [2] is given as “Competitive”; in test [2] (setting [3]) it was “competitive type inhibition”; in test [2] (setting [4]), “competitive inhibitor”.

The record behind these values is PMC6130761, “Isolation, crystal structure determination and cholinesterase inhibitory potential of isotalatizidine hydrate from Delphinium denudatum” (Pharmaceutical Biology, 2016).
